From US12156523B2 (priority 2017, dated 2024)

These molecules were tested on Pyricularia oryzae (assay: whole plant or invertebrate). Conditions: soil, read-out: Control value (number of lesions at the second leaf).
Type: in vivo

Compound	pest or weed control at 10 µg/mL
CC(C)Oc1cccc(N(C)C(=O)c2cc(F)nc(F)c2F)c1 [Example 1-1]	≥ 80%
CN(C(=O)c1cc(F)nc(F)c1F)c1ccccc1 [Example 1-2]	≥ 80%
O=C(Nc1c(F)c(F)c(C(F)(F)F)c(F)c1F)c1cc(F)nc(F)c1F [Example 1-4]	≥ 80%
O=C(Nc1cccc(Cl)c1Cl)c1cc(F)nc(F)c1F [Example 1-5]	≥ 80%
Cc1cccc(C)c1NC(=O)c1cc(F)nc(F)c1F [Example 1-7]	≥ 80%
O=C(Nc1ccc2c(c1)OCCO2)c1cc(F)nc(F)c1F [Example 1-9]	≥ 80%
O=C(NC1=NCCS1)c1cc(F)nc(F)c1F [Example 1-12]	≥ 80%
Cc1ccccc1NC(=O)c1cc(F)nc(F)c1F [Example 1-14]	≥ 80%
O=C(Nc1cnccn1)c1cc(F)nc(F)c1F [Example 1-15]	≥ 80%
O=C(Nc1ccccn1)c1cc(F)nc(F)c1F [Example 1-16]	≥ 80%
O=C(Nc1ncccn1)c1cc(F)nc(F)c1F [Example 1-17]	≥ 80%
COc1cc(NC(=O)c2cc(F)nc(F)c2F)cc(OC)c1OC [Example 1-20]	≥ 80%
O=C(Nc1ccc(F)c(F)c1)c1cc(F)nc(F)c1F [Example 1-21]	≥ 80%
COc1ccc(NC(=O)c2cc(F)nc(F)c2F)cc1OC [Example 1-22]	≥ 80%
O=C(Nc1cc(Cl)cc(Cl)c1)c1cc(F)nc(F)c1F [Example 1-24]	≥ 80%
COc1cc(NC(=O)c2cc(F)nc(F)c2F)cc(OC)c1 [Example 1-25]	≥ 80%
Cc1cc(C)cc(NC(=O)c2cc(F)nc(F)c2F)c1 [Example 1-26]	≥ 80%
O=C(Nc1cccc(Cc2ccccc2)c1)c1cc(F)nc(F)c1F [Example 1-27]	≥ 80%
Cc1ccc(NC(=O)c2cc(F)nc(F)c2F)cc1Br [Example 1-28]	≥ 80%
O=C(Nc1ccc(F)c(Cl)c1)c1cc(F)nc(F)c1F [Example 1-29]	≥ 80%
N#Cc1ccccc1NC(=O)c1cc(F)nc(F)c1F [Example 1-35]	≥ 80%
CCOC(=O)c1cccc(NC(=O)c2cc(F)nc(F)c2F)c1 [Example 1-37]	≥ 80%
Cc1ccc(NC(=O)c2cc(F)nc(F)c2F)cc1F [Example 1-39]	≥ 80%
Cc1ccc(NC(=O)c2cc(F)nc(F)c2F)cc1I [Example 1-40]	≥ 80%

Compound	pest or weed control at 10 µg/mL
Cc1cccc(NC(=O)c2cc(F)nc(F)c2F)c1 [Example 1-46]	≥ 80%
O=C(Nc1cccc(Oc2ccccc2)c1)c1cc(F)nc(F)c1F [Example 1-47]	≥ 80%
O=C(Nc1cccnn1)c1cc(F)nc(F)c1F [Example 1-48]	≥ 80%
CC(C)(C)Oc1cccc(NC(=O)c2cc(F)nc(F)c2F)c1 [Example 1-50]	≥ 80%
O=C(Nc1nc[nH]n1)c1cc(F)nc(F)c1F [Example 1-51]	≥ 80%
O=C(Nc1cccc(OC(F)(F)F)c1)c1cc(F)nc(F)c1F [Example 1-52]	≥ 80%
O=C(Nc1ccc(Cl)cc1)c1cc(F)nc(F)c1F [Example 1-54]	≥ 80%
N#Cc1ccc(NC(=O)c2cc(F)nc(F)c2F)cc1 [Example 1-55]	≥ 80%
CCOC(=O)c1ccc(NC(=O)c2cc(F)nc(F)c2F)cc1 [Example 1-56]	≥ 80%
CCOc1ccc(NC(=O)c2cc(F)nc(F)c2F)cc1 [Example 1-57]	≥ 80%
Cc1cc(NC(=O)c2cc(F)nc(F)c2F)ccc1F [Example 1-58]	≥ 80%
COc1ccc(NC(=O)c2cc(F)nc(F)c2F)cc1 [Example 1-61]	≥ 80%
COc1cc(NC(=O)c2cc(F)nc(F)c2F)ccc1C [Example 1-63]	≥ 80%
Cc1ccc(NC(=O)c2cc(F)nc(F)c2F)cc1[N+](=O)[O-] [Example 1-64]	≥ 80%
Cc1ccc(NC(=O)c2cc(F)nc(F)c2F)cc1C(F)(F)F [Example 1-65]	≥ 80%
Cc1ccc(NC(=O)c2cc(F)nc(F)c2F)cc1 [Example 1-66]	≥ 80%
O=C(Nc1ccc([N+](=O)[O-])cc1)c1cc(F)nc(F)c1F [Example 1-67]	≥ 80%
O=C(Nc1ccc(Oc2ccccc2)cc1)c1cc(F)nc(F)c1F [Example 1-68]	≥ 80%
CC(C)(C)Oc1ccc(NC(=O)c2cc(F)nc(F)c2F)cc1 [Example 1-70]	≥ 80%
CC(C)(C)c1ccc(NC(=O)c2cc(F)nc(F)c2F)cc1 [Example 1-71]	≥ 80%
Cc1cc(NC(=O)c2cc(F)nc(F)c2F)no1 [Example 1-73]	≥ 80%
Cc1cnc(NC(=O)c2cc(F)nc(F)c2F)s1 [Example 1-74]	≥ 80%
O=C(NCCO)c1cc(F)nc(F)c1F [Example 1-78]	≥ 80%
O=C(NCCS)c1cc(F)nc(F)c1F [Example 1-79]	≥ 80%

Compound	pest or weed control at 10 µg/mL
O=C(NC(CO)c1ccccc1)c1cc(F)nc(F)c1F (stereo not shown) [Example 1-81]	≥ 80%
CC(NC(=O)c1cc(F)nc(F)c1F)c1ccc(Cl)cc1 (stereo not shown) [Example 1-84]	≥ 80%
CC(NC(=O)c1cc(F)nc(F)c1F)c1ccccc1 (stereo not shown) [Example 1-85]	≥ 80%
O=C(NCCBr)c1cc(F)nc(F)c1F [Example 1-87]	≥ 80%
CCCNC(=O)c1cc(F)nc(F)c1F [Example 1-88]	≥ 80%
N#CCNC(=O)c1cc(F)nc(F)c1F [Example 1-91]	≥ 80%
CNC(=O)c1cc(F)nc(F)c1F [Example 1-92]	≥ 80%
CCCCCCCCNC(=O)c1cc(F)nc(F)c1F [Example 1-96]	≥ 80%
O=C(NCc1ccccc1)c1cc(NC(=O)c2cc(F)nc(F)c2F)ccc1Cl [Example 1-99]	≥ 80%
O=C(OCc1ccccc1Cl)c1cc(F)nc(F)c1F [Example 1-100]	≥ 80%
O=C(OCc1snc(Cl)c1Cl)c1cc(F)nc(F)c1F [Example 1-104]	≥ 80%
O=C(Oc1ccc(Cl)cc1)c1cc(F)nc(F)c1F [Example 1-107]	≥ 80%
N#Cc1ccc(OC(=O)c2cc(F)nc(F)c2F)cc1 [Example 1-108]	≥ 80%
COc1ccc(COC(=O)c2cc(F)nc(F)c2F)cc1 [Example 1-109]	≥ 80%
Cc1ccc(COC(=O)c2cc(F)nc(F)c2F)cc1 [Example 1-110]	≥ 80%
Cc1ccc(OC(=O)c2cc(F)nc(F)c2F)cc1 [Example 1-111]	≥ 80%
O=C(Oc1ccc([N+](=O)[O-])cc1)c1cc(F)nc(F)c1F [Example 1-112]	≥ 80%
O=C(OCc1ccccc1)c1cc(F)nc(F)c1F [Example 1-114]	≥ 80%
CC(OC(=O)c1cc(F)nc(F)c1F)C(F)(F)F (stereo not shown) [Example 1-115]	≥ 80%
CCOC(=O)c1cc(F)nc(F)c1F [Example 1-117]	≥ 80%
CC(C)OC(=O)c1cc(F)nc(F)c1F [Example 1-118]	≥ 80%
C#CCOC(=O)c1cc(F)nc(F)c1F [Example 1-119]	≥ 80%
O=C(OCC(F)(F)F)c1cc(F)nc(F)c1F [Example 1-120]	≥ 80%
O=C(OCC=C(Cl)Cl)c1cc(F)nc(F)c1F [Example 1-122]	≥ 80%

Compound	pest or weed control at 10 µg/mL
CCCOC(=O)c1cc(F)nc(F)c1F [Example 1-123]	≥ 80%
O=C(OC/C=C/c1ccccc1)c1cc(F)nc(F)c1F [Example 1-124]	≥ 80%
CCOC(=O)COC(=O)c1cc(F)nc(F)c1F [Example 1-125]	≥ 80%
CCCCCCCCOC(=O)c1cc(F)nc(F)c1F [Example 1-127]	≥ 80%
O=C(Sc1ccccc1)c1cc(F)nc(F)c1F [Example 1-130]	≥ 80%
O=C(NCc1ccccc1)c1cc(F)nc(F)c1 [Example 1-140]	≥ 80%
CC(NC(=O)c1cc(F)nc(F)c1)c1ccc(Cl)cc1 (stereo not shown) [Example 1-141]	≥ 80%
O=C(Nc1ccccc1)c1cc(F)nc(F)c1 [Example 1-143]	≥ 80%
CC(=O)Oc1ccccc1COC(=O)c1cc(F)nc(F)c1 [Example 1-145]	≥ 80%
O=C(Nc1ccccc1)c1ccnc(C(F)(F)F)c1 [Example 1-146]	≥ 80%
CCOC(=O)c1ccnc(C(F)(F)F)c1 [Example 1-147]	≥ 80%
O=C(OC/C=C\COC(=O)c1cc(F)nc(F)c1F)c1cc(F)nc(F)c1F [Example 1-151]	≥ 80%
O=C(OC/C=C/COC(=O)c1cc(F)nc(F)c1F)c1cc(F)nc(F)c1F [Example 1-152]	≥ 80%
O=C(Nc1ccc(Cl)cc1)c1cc(F)nc(F)c1 [Example 1-153]	≥ 80%
O=C(Nc1ccc(Cl)c(Cl)c1)c1cc(F)nc(F)c1 [Example 1-155]	≥ 80%
C=CCNC(=O)c1cc(F)nc(F)c1 [Example 1-159]	≥ 80%
CCCCCCc1ccc(NC(=O)c2cc(F)nc(F)c2)cc1 [Example 1-181]	≥ 80%
C#CCOC(=O)c1cc(F)nc(F)c1 [Example 1-182]	≥ 80%
CCCOC(=O)c1cc(F)nc(F)c1 [Example 1-184]	≥ 80%
CCOC(=O)c1cc(F)nc(F)c1 [Example 1-185]	≥ 80%
CCc1ccc(OC(=O)c2cc(F)nc(F)c2)cc1 [Example 1-186]	≥ 80%
C=CCOC(=O)c1cc(F)nc(F)c1 [Example 1-188]	≥ 80%
